Assay results: US9867811B2, “Method of treating atherosclerosis in high triglyceride subjects” (NOVARTIS AG, priority 2011, dated 2018)
Like-named read-outs stand apart in the source and are kept apart here.

How the values were obtained:
CETP [1] = target: T1, CETP (Homo sapiens, UniProt P11597); test: In vitro CETP activity assay in human plasma (serum pools of differing triglyceride level); assay type: biochemical; details: human serum pool
T1 construct: Human serum samples were obtained from the Novartis Institutes for BioMedical Research donor program; tissue Novartis donor program; Bioreclamation (Westbury, N.Y.); Uniglobe (Reseda, Calif.); host or cells: pooled human donor serum
T1 sequence (P11597 18-493): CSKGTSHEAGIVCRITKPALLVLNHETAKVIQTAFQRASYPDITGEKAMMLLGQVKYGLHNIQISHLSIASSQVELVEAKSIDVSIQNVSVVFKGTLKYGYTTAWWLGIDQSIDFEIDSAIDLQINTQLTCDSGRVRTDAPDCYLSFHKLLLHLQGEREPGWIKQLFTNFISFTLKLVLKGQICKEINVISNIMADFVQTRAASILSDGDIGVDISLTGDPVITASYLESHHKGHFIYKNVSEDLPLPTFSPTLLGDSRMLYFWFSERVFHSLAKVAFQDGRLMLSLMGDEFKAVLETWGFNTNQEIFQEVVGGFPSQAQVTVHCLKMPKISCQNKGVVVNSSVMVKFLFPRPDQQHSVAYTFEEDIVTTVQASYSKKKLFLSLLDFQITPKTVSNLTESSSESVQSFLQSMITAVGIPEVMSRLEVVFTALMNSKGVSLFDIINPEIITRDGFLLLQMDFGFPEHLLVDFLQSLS
Procedure: Pro-apoA-1 containing microemulsion as a donor particle was prepared following previous report (J. Biol. Chem., 280:14918-22). Glyceryl trioleate (500 ug, Sigma-Aldrich, Cat. No. T7140), 3-sn-phosphatidylcholine (4680 ug, Sigma, Cat. No. P2772), and cholesteryl BODIPY FL 012 (2 mg, Invitrogen, CA, Cat. No. C-3927MP) were dissolved in 1.5 mL of chloroform. The solution was evaporated, and residual solvent was removed under vacuum for more than 1 hr at room temperature. The dried lipid mixture was dissolved in 7 ml of the assay buffer (50 mM Tris-HCl (pH 7.4) containing 150 mM NaCl and 2 mM EDTA) and sonicated in water bath for 1 hr. The solution was split into two tubes of 3.5 ml each. Each tube was sonicated at 50° C. with a microtip (MICROSON™ ULTRASONIC CELL DISRUPTOR, Misonix, Farmingdale, N.Y.) at output power 006 for 10 min (every other 25 seconds). The solution was cooled to 40° C. and 400 ug of pro-apoA-1 was added to each tube (total volume of 4 mL). Then, the solution was sonicated at output power 004 for 20 min (every other 30 seconds). Final Concentration: Glyceryl Tiroleate: 62.5 ug/ml, PC: 585 ug/ml, Bodipy CE: 250 ug/ml, Pro-apoA-1: 100 ug/ml. Centrifuge solution at 5200×g for 5 minutes and store the supernatant at 4′C.
Human serum samples were obtained from the Novartis Institutes for BioMedical Research donor program (normal triglyceride samples) or purchased from Bioreclamation (Westbury, N.Y.) or Uniglobe (Reseda, Calif.). General requirements for human serum donors included: male gender, 20-55 years of age, not currently on a lipid altering medication, non-fasting at time of blood collection, and a total cholesterol level between 200-300 mg/dL. Donor samples were selected primarily on the basis of serum triglyceride level, using the following classifications: normal triglycerides (<150 mg/dL); high triglycerides (300-500 mg/dL); and very high triglycerides (750-1200 mg/dL). A total of 4 individual serum samples from each classification were used in these experiments. For each of the 3 triglyceride classifications, two serum sample pools were prepared. The mean plasma triglyceride concentrations (mg/dL) for the pools were: Normal: 101.35; High: 347.5; Very high 1, 868.45; Very high 2, 1269.35.
Donor solution is prepared by a dilution of donor microemulsion with assay buffer (1.7 ul donor+8.3 ul Buffer). Human serum (25 μL), assay buffer (14 μL) and 50× test compound dissolved in 100% dimethylsulfoxide (1 μL) are added to each well of 384 well black, clear-bottom plate (NUNC. Thermo Fisher #242764). The reaction is started by the addition of donor solution (10 μL) into each well. Fluorescence intensities are measured every 10 min at 37° C. with excitation wave length of 485 nm and emission wavelength of 515 nm over an 80 minute period, using a SpectraMax M5 from Molecular Devices (Sunnyvale, Calif.). The CETP activity (RFU/min) is defined as the change of fluorescence intensity from 40 to 70 min. Percent CETP inhibition is calculated as follows: ((100% Act−Wellcmpnd)/100% Act))*100. IC50 values were calculated with GraphPad Prism 5 software.

CETP [2] = test: Ex vivo plasma CETP activity assay with exogenously added compound (maximum inhibition); assay type: biochemical; details: 10 μM, hamster plasma (80% plasma)
Procedure: Plasma CETP activity ex vivo was determined as followed: 50 μL of hamster plasma (final 80% plasma) was mixed with 10 μL of donor solution diluted with assay buffer composed of 50 mM Tris-HCl (pH7.4) containing 150 mM NaCl and 2 mM EDTA in a 96-well half area black flat bottom plate (Cat. No. 3686, Corning, Corning, N.Y.). Fluorescence intensity was measured every 15 min at an excitation wave length of 485 nm and an emission wavelength of 535 nm for 120 min at 37° C. using ARVO SX+L (PerkinElmer, Wellesley, Mass.). CETP activity (RFU/min) was defined as the change in fluorescence intensity from 30 to 90 min.

CETP [3] = test: Ex vivo CETP activity in plasma of hamsters (saline or Triton WR-1339 treated); details: hamster
Procedure: Nine- to ten-week-old, male golden Syrian hamsters were purchased from Japan SLC Inc. (Shizuoka, Japan). Animals underwent a more than 1-week acclimation period under the following conditions: 8:00/20:00 light/dark cycle, room temperature 23±2° C. […] During this time, animals received filtered (0.5 μm) water and a standard chow diet ad libitum.
Whole blood samples were collected using a heparin-washed syringe (Heparin sodium injection “Ajinomoto”; Ajinomoto, Tokyo, Japan) from the abdominal vein by venipuncture under isoflurane (Abbott Japan Co. Ltd.) inhalant anesthesia. After centrifugation at 15,000 rpm for 10 min at 4° C., heparinized plasma was prepared and stored at −80° C. until use.
CETP activity (RFU/min) was defined as the change in fluorescence intensity from 30 to 90 min.
The effect of an acute increase of plasma triglycerides in vivo (acute increase in triglyceride-rich particles) on the ability of Torcetrapib to alter plasma CETP activity, triglyceride and total cholesterol levels was investigated. Torcetrapib at doses of 3, 10 or 30 mg/kg or vehicle was administered once by gavage to hamsters fed a standard chow diet.
Compound or vehicle was administered once by gavage to hamsters fed a standard chow diet.

[4] = TG = 101.35 mg/dL (normal), read-out: CETP IC50 (nM) TG = 101.35 mg/dL
[5] = TG = 374.5 mg/dL (high), read-out: CETP IC50 (nM) TG = 374.5 mg/dL
[6] = TG = 868.45 mg/dL (very high 1), read-out: CETP IC50 (nM) TG = 868.45 mg/dL
[7] = TG = 1269.35 mg/dL (very high 2), read-out: CETP IC50 (nM) TG = 1269.35 mg/dL

CC[C@@H]1C[C@H](N(Cc2cc(C(F)(F)F)cc(C(F)(F)F)c2)c2ncc(-c3cnn(C)c3)cn2)C[C@H](CC)N1C(=O)O[C@H]1C[C@H](C(=O)O)C1 [Example 17]
IC50 (CETP [1]; [4]): 114 nM
IC50 (CETP [1]; [5]): 62.7 nM
IC50 (CETP [1]; [6]): 40.2 nM
IC50 (CETP [1]; [7]): 29.6 nM

CC[C@@H]1C[C@H](N(Cc2cc(C(F)(F)F)cc(C(F)(F)F)c2)c2ncc(-c3cnn(C)c3)cn2)C[C@H](CC)N1C(=O)O[C@H]1CC[C@H](C(=O)O)CC1 [Example 19]
IC50 (CETP [1]; [4]): 71.9 nM
IC50 (CETP [1]; [5]): 116 nM
IC50 (CETP [1]; [7]): 540 nM

Cn1nnc(N(Cc2cc(C(F)(F)F)cc(C(F)(F)F)c2)Cc2cc3cc(F)c(F)cc3nc2N2CCC[C@@H]2[C@H]2CC[C@H](C(=O)O)CC2)n1 [Example 49]
IC50 (CETP [1]; [4]): 22.1 nM
IC50 (CETP [1]; [5]): 42.7 nM
IC50 (CETP [1]; [6]): 37.1 nM
IC50 (CETP [1]; [7]): 46.4 nM
Maximum inhibition of CETP activity, compound exogenously added, Triton WR-1339 group (CETP [2]; Triton WR-1339 group): ~100%
Maximum inhibition of CETP activity, compound exogenously added, saline group (CETP [2]; saline group): ~100%
Inhibition of CETP activity, lower dose group, Triton WR-1339 group (CETP [3]; oral gavage: Torcetrapib 5 mg/kg, Anacetrapib 1.5 mg/kg, Example 49 1.5 mg/kg, Example 8 0.75 mg/kg, Triton WR-1339 100 mg/kg i.v., not significant vs vehicle): 26%
Inhibition of CETP activity, lower dose group, saline group (CETP [3]; oral gavage: Torcetrapib 5 mg/kg, Anacetrapib 1.5 mg/kg, Example 49 1.5 mg/kg, Example 8 0.75 mg/kg, saline i.v.): 63%
Inhibition of CETP activity, higher dose group, Triton WR-1339 group (CETP [3]; oral gavage: Torcetrapib 10 mg/kg, Anacetrapib 3 mg/kg, Example 49 3 mg/kg, Example 8 1.5 mg/kg, Triton WR-1339 100 mg/kg i.v.): 38%
Inhibition of CETP activity, higher dose group, saline group (CETP [3]; oral gavage: Torcetrapib 10 mg/kg, Anacetrapib 3 mg/kg, Example 49 3 mg/kg, Example 8 1.5 mg/kg, saline i.v.): 77%

Cc1cc(C)c2c(c1)[C@@H](N(Cc1cc(C(F)(F)F)cc(C(F)(F)F)c1)c1nnn(C)n1)CCCN2C[C@H]1CC[C@H](C(=O)O)CC1 [Example 53]
IC50 (CETP [1]; [4]): 48.7 nM
IC50 (CETP [1]; [5]): 49.8 nM
IC50 (CETP [1]; [6]): 54.4 nM
IC50 (CETP [1]; [7]): 92.3 nM

CCN(C[C@H]1CC[C@H](CC(=O)O)CC1)c1ccc(C(F)(F)F)cc1CN(c1ncc(OCCS(C)(=O)=O)cn1)[C@@H](C)c1cc(C(F)(F)F)cc(C(F)(F)F)c1 [Example 57A]
IC50 (CETP [1]; [4]): 301 nM
IC50 (CETP [1]; [5]): 155 nM
IC50 (CETP [1]; [6]): 91.7 nM
IC50 (CETP [1]; [7]): 29.4 nM

CCN(C[C@H]1CC[C@H](CC(=O)O)CC1)c1ccc(C(F)(F)F)cc1CN(c1ncc(OCCS(C)(=O)=O)cn1)[C@H](C)c1cc(C(F)(F)F)cc(C(F)(F)F)c1 [Example 57B]
IC50 (CETP [1]; [4]): 669 nM
IC50 (CETP [1]; [5]): 1300 nM
IC50 (CETP [1]; [6]): 2300 nM
IC50 (CETP [1]; [7]): 2700 nM

CCN(C[C@H]1CC[C@H](CC(=O)O)CC1)c1cc(C)c(C(F)(F)F)cc1CN(Cc1cc(C(F)(F)F)cc(C(F)(F)F)c1)c1nnn(C)n1 [Example 58]
IC50 (CETP [1]; [4]): 82.2 nM
IC50 (CETP [1]; [5]): 151 nM
IC50 (CETP [1]; [6]): 280 nM
IC50 (CETP [1]; [7]): 372 nM
